Converted amounts (≈) assume the structure as drawn.
What was measured:
Assay type in all cases: functional
[1] = system: Enterococcus faecalis; assay: Antibacterial activity against Enterococcus faecalis p1-2007225053 assessed as inhibition of bacterial growth by continuous dilution method
[2] = system: Escherichia coli; assay: Antibacterial activity against Escherichia coli assessed as inhibition of bacterial growth by continuous dilution method
[3] = system: Pseudomonas aeruginosa; assay: Antibacterial activity against Pseudomonas aeruginosa assessed as inhibition of bacterial growth by continuous dilution method
[4] = system: Enterococcus faecalis; assay: Antibacterial activity against Enterococcus faecalis p1-2007226001 assessed as inhibition of bacterial growth by continuous dilution method
[5] = system: Pseudomonas aeruginosa; assay: Antibacterial activity against Pseudomonas aeruginosa ATCC 27853 assessed as inhibition of bacterial growth by continuous dilution method
[6] = system: Acinetobacter baumannii; assay: Antibacterial activity against Acinetobacter baumannii assessed as inhibition of bacterial growth by continuous dilution method
[7] = system: Staphylococcus aureus; assay: Antibacterial activity against Staphylococcus aureus ATCC 25923 assessed as inhibition of bacterial growth by continuous dilution method
[8] = system: Escherichia coli; assay: Antibacterial activity against Escherichia coli ATCC 25922 assessed as inhibition of bacterial growth by continuous dilution method
[9] = system: Staphylococcus aureus; assay: Antibacterial activity against Staphylococcus aureus assessed as inhibition of bacterial growth by continuous dilution method
[10] = system: Enterococcus faecalis; assay: Antibacterial activity against Enterococcus faecalis assessed as inhibition of bacterial growth by continuous dilution method
[11] = system: Klebsiella pneumoniae; assay: Antibacterial activity against Klebsiella pneumoniae assessed as inhibition of bacterial growth by continuous dilution method
[12] = system: Staphylococcus aureus; assay: Antibacterial activity against methicillin-resistant Staphylococcus aureus N315 assessed as inhibition of bacterial growth by continuous dilution method
[13] = system: Staphylococcus aureus; assay: Antibacterial activity against Staphylococcus aureus ATCC 29213 assessed as inhibition of bacterial growth by continuous dilution method

SMILES | MIC [1] | MIC [2] | MIC [3] | MIC [4] | MIC [5] | MIC [6] | MIC [7] | MIC [8] | MIC [9] | MIC [10] | MIC [11] | MIC [12] | MIC [13]
CCn1cc(C(=O)O)c(=O)c2cc(F)c(N3CCNCC3)cc21 [NORFLOXACIN] | 8 µg/mL (≈ 25.1 µM) | 16 µg/mL (≈ 50.1 µM) | 2 µg/mL (≈ 6.26 µM) | 4 µg/mL (≈ 12.5 µM) | 2 µg/mL (≈ 6.26 µM) | 4 µg/mL (≈ 12.5 µM) | 4 µg/mL (≈ 12.5 µM) | 4 µg/mL (≈ 12.5 µM) | 4 µg/mL (≈ 12.5 µM) | 8 µg/mL (≈ 25.1 µM) | 8 µg/mL (≈ 25.1 µM) | 8 µg/mL (≈ 25.1 µM) | 2 µg/mL (≈ 6.26 µM)
CC(=O)Nc1ccc(S(=O)(=O)/C(=C\c2ccc(F)cc2F)C(=O)c2nccs2)cc1 |  | 128 µg/mL (≈ 285 µM) | 128 µg/mL (≈ 285 µM) |  | 64 µg/mL (≈ 143 µM) | 128 µg/mL (≈ 285 µM) | 256 µg/mL (≈ 571 µM) | 128 µg/mL (≈ 285 µM) | 128 µg/mL (≈ 285 µM) | 128 µg/mL (≈ 285 µM) | 128 µg/mL (≈ 285 µM) | 64 µg/mL (≈ 143 µM) | 256 µg/mL (≈ 571 µM)
Nc1ccc(S(=O)(=O)C/C(=N/OCc2ccc(Cl)cc2Cl)c2nccs2)cc1 |  | 32 µg/mL (≈ 70.1 µM) | 64 µg/mL (≈ 140 µM) |  | 16 µg/mL (≈ 35.1 µM) | 64 µg/mL (≈ 140 µM) | 64 µg/mL (≈ 140 µM) | 16 µg/mL (≈ 35.1 µM) | 64 µg/mL (≈ 140 µM) | 16 µg/mL (≈ 35.1 µM) | 32 µg/mL (≈ 70.1 µM) | 64 µg/mL (≈ 140 µM) | 64 µg/mL (≈ 140 µM)
CC(=O)Nc1ccc(S(=O)(=O)C/C(=N/OCc2ccc(Cl)cc2Cl)c2nccs2)cc1 |  | 64 µg/mL (≈ 128 µM) | 64 µg/mL (≈ 128 µM) |  | 32 µg/mL (≈ 64.2 µM) | 128 µg/mL (≈ 257 µM) | 128 µg/mL (≈ 257 µM) | 16 µg/mL (≈ 32.1 µM) | 128 µg/mL (≈ 257 µM) | 64 µg/mL (≈ 128 µM) | 64 µg/mL (≈ 128 µM) | 64 µg/mL (≈ 128 µM) | 128 µg/mL (≈ 257 µM)
CC(=O)Nc1ccc(S(=O)(=O)C/C(=N/Nc2ccc([N+](=O)[O-])cc2)c2nccs2)cc1 |  | 64 µg/mL (≈ 139 µM) | 32 µg/mL (≈ 69.6 µM) |  | 64 µg/mL (≈ 139 µM) | 256 µg/mL (≈ 557 µM) | 256 µg/mL (≈ 557 µM) | 32 µg/mL (≈ 69.6 µM) | 32 µg/mL (≈ 69.6 µM) | 256 µg/mL (≈ 557 µM) | 256 µg/mL (≈ 557 µM) | 256 µg/mL (≈ 557 µM) | 256 µg/mL (≈ 557 µM)
Nc1ccc(S(=O)(=O)C/C(=N/O)c2nccs2)cc1 |  | 32 µg/mL (≈ 108 µM) | 128 µg/mL (≈ 430 µM) |  | 64 µg/mL (≈ 215 µM) | 256 µg/mL (≈ 861 µM) | 64 µg/mL (≈ 215 µM) | 16 µg/mL (≈ 53.8 µM) | 128 µg/mL (≈ 430 µM) | 128 µg/mL (≈ 430 µM) | 64 µg/mL (≈ 215 µM) | 128 µg/mL (≈ 430 µM) | 64 µg/mL (≈ 215 µM)
CC(=O)Nc1ccc(S(=O)(=O)C/C(=N/Nc2ccccc2)c2nccs2)cc1 |  | 256 µg/mL (≈ 618 µM) | 256 µg/mL (≈ 618 µM) |  | 256 µg/mL (≈ 618 µM) | 64 µg/mL (≈ 154 µM) | 256 µg/mL (≈ 618 µM) | 256 µg/mL (≈ 618 µM) | 256 µg/mL (≈ 618 µM) | 128 µg/mL (≈ 309 µM) | 256 µg/mL (≈ 618 µM) | 128 µg/mL (≈ 309 µM) | 256 µg/mL (≈ 618 µM)
CCCCCCCCO/N=C(/CS(=O)(=O)c1ccc(NC(C)=O)cc1)c1nccs1 |  | 32 µg/mL (≈ 70.9 µM) | 64 µg/mL (≈ 142 µM) |  | 64 µg/mL (≈ 142 µM) | 128 µg/mL (≈ 283 µM) | 64 µg/mL (≈ 142 µM) | 16 µg/mL (≈ 35.4 µM) | 128 µg/mL (≈ 283 µM) | 64 µg/mL (≈ 142 µM) | 64 µg/mL (≈ 142 µM) | 64 µg/mL (≈ 142 µM) | 64 µg/mL (≈ 142 µM)
CC(=O)Nc1ccc(S(=O)(=O)C/C(=N/NC(=O)c2ccncc2)c2nccs2)cc1 |  | 128 µg/mL (≈ 289 µM) | 8 µg/mL (≈ 18 µM) |  | 4 µg/mL (≈ 9.02 µM) | 32 µg/mL (≈ 72.2 µM) | 8 µg/mL (≈ 18 µM) | 128 µg/mL (≈ 289 µM) | 16 µg/mL (≈ 36.1 µM) | 4 µg/mL (≈ 9.02 µM) | 32 µg/mL (≈ 72.2 µM) | 32 µg/mL (≈ 72.2 µM) | 4 µg/mL (≈ 9.02 µM)
CC(=O)Nc1ccc(S(=O)(=O)C/C(=N/NC(=O)c2cccnc2)c2nccs2)cc1 |  | 32 µg/mL (≈ 72.2 µM) | 128 µg/mL (≈ 289 µM) |  | 16 µg/mL (≈ 36.1 µM) | 32 µg/mL (≈ 72.2 µM) | 2 µg/mL (≈ 4.51 µM) | 128 µg/mL (≈ 289 µM) | 8 µg/mL (≈ 18 µM) | 128 µg/mL (≈ 289 µM) | 16 µg/mL (≈ 36.1 µM) | 2 µg/mL (≈ 4.51 µM) | 128 µg/mL (≈ 289 µM)
CC(=O)Nc1ccc(S(=O)(=O)C/C(=N/NC(=O)c2ccccc2O)c2nccs2)cc1 |  | 128 µg/mL (≈ 279 µM) | 256 µg/mL (≈ 558 µM) |  | 16 µg/mL (≈ 34.9 µM) | 128 µg/mL (≈ 279 µM) | 64 µg/mL (≈ 140 µM) | 64 µg/mL (≈ 140 µM) | 128 µg/mL (≈ 279 µM) | 128 µg/mL (≈ 279 µM) | 128 µg/mL (≈ 279 µM) | 64 µg/mL (≈ 140 µM) | 256 µg/mL (≈ 558 µM)
C=CCO/N=C(/CS(=O)(=O)c1ccc(N)cc1)c1nccs1 |  | 32 µg/mL (≈ 94.8 µM) | 64 µg/mL (≈ 190 µM) |  | 16 µg/mL (≈ 47.4 µM) | 64 µg/mL (≈ 190 µM) | 32 µg/mL (≈ 94.8 µM) | 16 µg/mL (≈ 47.4 µM) | 64 µg/mL (≈ 190 µM) | 16 µg/mL (≈ 47.4 µM) | 32 µg/mL (≈ 94.8 µM) | 128 µg/mL (≈ 379 µM) | 32 µg/mL (≈ 94.8 µM)
CC(=O)Nc1ccc(S(=O)(=O)/C(=C\c2ccc(F)cc2)C(=O)c2nccs2)cc1 |  | 128 µg/mL (≈ 297 µM) | 256 µg/mL (≈ 595 µM) |  | 64 µg/mL (≈ 149 µM) | 64 µg/mL (≈ 149 µM) | 256 µg/mL (≈ 595 µM) | 64 µg/mL (≈ 149 µM) | 128 µg/mL (≈ 297 µM) | 128 µg/mL (≈ 297 µM) | 128 µg/mL (≈ 297 µM) | 128 µg/mL (≈ 297 µM) | 128 µg/mL (≈ 297 µM)
CC(=O)Nc1ccc(S(=O)(=O)C/C(=N/Nc2ccc(C(=O)O)cc2)c2nccs2)cc1 |  | 64 µg/mL (≈ 140 µM) | 128 µg/mL (≈ 279 µM) |  | 32 µg/mL (≈ 69.8 µM) | 64 µg/mL (≈ 140 µM) | 32 µg/mL (≈ 69.8 µM) | 32 µg/mL (≈ 69.8 µM) | 2 µg/mL (≈ 4.36 µM) | 16 µg/mL (≈ 34.9 µM) | 128 µg/mL (≈ 279 µM) | 8 µg/mL (≈ 17.4 µM) | 32 µg/mL (≈ 69.8 µM)

From ChEMBL document CHEMBL5325403, “Benzenesulfonyl thiazoloimines as unique multitargeting antibacterial agents towards Enterococcus faecalis” (Eur J Med Chem, 2023)
